For one data set, the system named is Plasmodium falciparum. The data set is described as follows: Antimalarial activity against Plasmodium falciparum Dd2 assessed as inhibition of parasite proliferation. It counts as functional.
Data set [1] is described as follows: Solubility in PBS buffet at pH 7.4 at 100 uM incubated for 18 hrs by UPLC-MS method. It is filed as physicochemical. The settings on record: buffer, pH 7.4, 18 h, 100 µM.
Data set [2] is described as follows: Lipophilicity, log D of the compound by HPLC method. It counts as physicochemical.
Data set [3] in a line: Stability in mouse microsomes assessed as compound remaining at 1 uM after 1 hr at 37 degC by UPLC-MS method. It is filed as ADME, Microsome. As to conditions: read-out: Stability.

The structures appear in SMILES notation. In brackets after ≈: the same amount, converted by molar mass.

The record followed here is ChEMBL document CHEMBL3351611, “Diversity-oriented synthesis-facilitated medicinal chemistry: toward the development of novel antimalarial agents” (J Med Chem, 2014).

Turning to `COc1ccc(COC[C@H](C)N2C[C@@H](C)[C@H](CN(C)S(=O)(=O)c3ccc(F)cc3)OCCCC[C@H](C)Oc3ncc(F)cc3C2=O)cc1`, in the data set on Plasmodium falciparum, the concentration for 50% growth inhibition (GI50) came to 162 nM. The compound further came in with a solubility in data set [1] of under 5 µM.

For `COc1ccc(COC[C@H](C)N2CC[C@H](CN(C)S(=O)(=O)c3ccc(F)cc3)OCCCC[C@H](C)Oc3ccc(NC(=O)Nc4c(C)noc4C)cc3C2=O)cc1`, the 50% growth inhibitory concentration (GI50) in the data set with Plasmodium falciparum came to 20 nM. For the same compound, the solubility in data set [1] was under 5 µM.

`Cc1noc(C)c1NC(=O)Nc1ccc2c(c1)C(=O)N([C@@H](C)C[N+](C)(C)[O-])C[C@@H](C)[C@H](CN(C)S(=O)(=O)c1ccc(F)cc1)OCCCC[C@H](C)O2`: in the data set on Plasmodium falciparum, the 50% growth inhibitory concentration (GI50) worked out at 160 nM. In data set [1], this compound gave a solubility of over 100 µM. Besides, the logD in data set [2] was 1.5. Moreover, the remaining at 1 h, 1 µM in data set [3] worked out at 35%.

Consider `CNC[C@H](C)N1C[C@@H](C)[C@H](CN(C)S(=O)(=O)c2ccc(F)cc2)OCCCC[C@H](C)Oc2ccc(NC(=O)Nc3c(C)noc3C)cc2C1=O`, for which, in the data set with Plasmodium falciparum, the 50% growth inhibitory concentration (GI50) stood at 320 nM. For the same compound, in data set [1], the solubility is over 100 µM. In data set [2], this compound returned a pH-dependent lipophilicity (logD) of 1.7. Besides, in data set [3], the remaining at 1 h, 1 µM was 51%.

In the case of `COc1ccc(COC[C@H](C)N2C[C@@H](C)[C@H](CN(C)S(=O)(=O)c3ccc(F)cc3)OCCCC[C@H](C)Oc3cc(C(F)(F)F)ccc3C2=O)cc1`, the GI50 in the data set with Plasmodium falciparum came to 48 nM. For the same compound, the solubility in data set [1] was under 5 µM.

Consider `COc1ccc(COC[C@H](C)N2C[C@@H](C)[C@H](CN(C)S(=O)(=O)c3ccc(F)cc3)OCCOc3ccc(NC(=O)Nc4c(C)noc4C)cc3C2=O)cc1`, for which the GI50 in the data set with Plasmodium falciparum is 2970 nM. This compound had a solubility in data set [1] of 6 µM (≈ 4.61 µg/mL).

Regarding `COc1ccc(COC[C@H](C)N2C[C@@H](C)[C@H](CN(C)S(=O)(=O)c3ccc(F)cc3)OCCCC[C@H](C)Oc3cc(F)ccc3C2=O)cc1`, in the data set on Plasmodium falciparum, the GI50 was 38 nM. In data set [1], this compound showed a solubility of under 5 µM.

Take `COc1ccc(COC[C@H](C)N2C[C@@H](C)[C@H](CN(C)S(=O)(=O)c3ccc(F)cc3)OCCCC[C@H](C)Oc3ccc(NC(=O)Nc4c(C)noc4C)cc3C2=O)cc1`: the 50% growth inhibitory concentration (GI50) with Plasmodium falciparum was determined as 0.88 nM. In addition, in data set [1], the solubility was under 5 µM.

Regarding `CNC[C@H](C)N1C[C@@H](C)[C@H](CN(C)S(=O)(=O)c2ccc(F)cc2)OCCCCOc2ccc(NC(=O)Nc3c(C)noc3C)cc2C1=O`, the 50% growth inhibitory concentration (GI50) with Plasmodium falciparum came to 624 nM. Moreover, in data set [1], the solubility is over 100 µM. For the same compound, in data set [3], the remaining at 1 h, 1 µM came out at 65%.

For `COc1ccc(COC[C@H](C)N2C[C@@H](C)[C@H](CN(C)S(=O)(=O)c3ccc(F)cc3)OCCCC[C@H](C)OCCC2=O)cc1`, the GI50 with Plasmodium falciparum is 3410 nM. In data set [1], this compound showed a solubility of under 5 µM.

Regarding `CCN(CC)C[C@H](C)N1C[C@@H](C)[C@H](CN(C)S(=O)(=O)c2ccc(F)cc2)OCCCC[C@H](C)Oc2ccc(NC(=O)Nc3c(C)noc3C)cc2C1=O`, in the data set with Plasmodium falciparum, the GI50 worked out at 5 nM. The solubility in data set [1] is 8 µM (≈ 6.07 µg/mL). The compound also came in with a pH-dependent lipophilicity (logD) in data set [2] of 3.1. In data set [3], the remaining at 1 h, 1 µM came to 5%.

In the case of `COc1ccc(COC[C@H](C)N2C[C@@H](C)[C@H](CN(C)S(=O)(=O)c3ccc(F)cc3)OCCCCCNc3ccc(NC(=O)Nc4c(C)noc4C)cc3C2=O)cc1`, the 50% growth inhibitory concentration (GI50) with Plasmodium falciparum stood at 76 nM. In data set [1], the solubility was under 5 µM.

Turning to `COc1ccc(COC[C@H](C)N2C[C@@H](C)[C@H](CN(C)S(=O)(=O)c3ccc(F)cc3)Oc3ccc(NC(=O)Nc4c(C)noc4C)cc3C2=O)cc1`, the 50% growth inhibitory concentration (GI50) in the data set on Plasmodium falciparum is over 5000 nM.

In the case of `Cc1noc(C)c1NC(=O)Nc1ccc2c(c1)C(=O)N([C@@H](C)CN(C)C)CC[C@H](CN(C)S(=O)(=O)c1ccc(F)cc1)OCCCC[C@H](C)O2`, the GI50 in the data set with Plasmodium falciparum was determined as 71 nM. The same compound yielded a solubility in data set [1] of 99 µM (≈ 71 µg/mL). Besides, the remaining at 1 h, 1 µM in data set [3] was 2%.

With `Cc1noc(C)c1NC(=O)Nc1ccc2c(c1)C(=O)N([C@@H](C)CN(C)C)C[C@@H](C)[C@H](CN(C)S(=O)(=O)c1ccc(F)cc1)OCCCCCO2`, in the data set with Plasmodium falciparum, the concentration for 50% growth inhibition (GI50) amounted to 111 nM. The solubility in data set [1] is over 100 µM.

Regarding `COc1ccc(COC[C@H](C)N2C[C@@H](C)[C@H](CN(C)S(=O)(=O)c3ccc(F)cc3)OCCCC[C@H](C)Oc3ccc(F)cc3C2=O)cc1`, the GI50 in the data set on Plasmodium falciparum came to 162 nM. For the same compound, the solubility in data set [1] is under 5 µM.

For `COc1ccc(COC[C@H](C)N2C[C@@H](C)[C@H](CN(C)S(=O)(=O)c3ccc(F)cc3)OCCCOc3ccc(NC(=O)Nc4c(C)noc4C)cc3C2=O)cc1`, the GI50 in the data set with Plasmodium falciparum came to 767 nM. The same compound registered a solubility in data set [1] of under 5 µM.

For `COc1ccc(COC[C@H](C)N2C[C@@H](C)[C@H](CN(C)S(=O)(=O)c3ccc(F)cc3)OCCCC[C@H](C)Oc3nccnc3C2=O)cc1`, the GI50 with Plasmodium falciparum is 214 nM. Further, the solubility in data set [1] is under 5 µM.

For `COc1ccc(COC[C@H](C)N2C[C@@H](C)[C@H](CN(C)S(=O)(=O)c3ccc(F)cc3)OCCCC[C@H](C)Oc3c(cnn3C)C2=O)cc1`, the GI50 with Plasmodium falciparum was found to be 375 nM. Also, in data set [1], the solubility turned out to be 15 µM (≈ 10.1 µg/mL).

Consider `Cc1noc(C)c1NC(=O)Nc1ccc2c(c1)C(=O)N([C@@H](C)CN(C)C)C[C@@H](C)[C@H](CN(C)S(=O)(=O)c1ccc(F)cc1)OCCCCO2`, for which the GI50 in the data set with Plasmodium falciparum came out at 91 nM. In data set [1], this compound yielded a solubility of over 100 µM. Further, in data set [3], the remaining at 1 h, 1 µM came to 15%.

In the case of `C[C@@H]1CN([C@@H](C)CN(C)C)C(=O)c2cc(NC(=O)Nc3ccc(F)cc3)ccc2O[C@@H](C)CCCCO[C@H]1CN(C)S(=O)(=O)c1ccc(F)cc1`, the GI50 with Plasmodium falciparum amounted to 1.4 nM. The solubility in data set [1] is under 5 µM. This compound showed a log distribution coefficient (logD) in data set [2] of 3.5. The remaining at 1 h, 1 µM in data set [3] is under 5%.

As to `COc1ccc(COC[C@H](C)N2C[C@@H](C)[C@H](CN(C)S(=O)(=O)c3ccc(F)cc3)OCCCC[C@H](C)Oc3ncccc3C2=O)cc1`, in the data set on Plasmodium falciparum, the GI50 is 59 nM. The compound further registered a solubility in data set [1] of under 5 µM.

As for `COc1ccc(COC[C@H](C)N2C[C@@H](C)[C@H](CN(C)S(=O)(=O)c3ccc(F)cc3)OCCCCCOc3ccc(NC(=O)Nc4c(C)noc4C)cc3C2=O)cc1`, in the data set with Plasmodium falciparum, the GI50 is 6 nM.

Take `COc1ccc(COC[C@H](C)N2C[C@@H](C)[C@H](CN(C)S(=O)(=O)c3ccc(F)cc3)OCCCC[C@H](C)Oc3ccsc3C2=O)cc1`: in the data set with Plasmodium falciparum, the GI50 worked out at 481 nM. In data set [1], this compound showed a solubility of under 5 µM.

In the case of `CCN(CC)C[C@H](C)N1C[C@@H](C)[C@H](CN(C)S(=O)(=O)c2ccc(F)cc2)OCCCC[C@H](C)Oc2ncccc2C1=O`, the GI50 in the data set with Plasmodium falciparum is 79 nM. This compound gave a solubility in data set [1] of over 100 µM. Moreover, the remaining at 1 h, 1 µM in data set [3] was under 5%.

In the case of `COc1ccc(COC[C@H](C)N2C[C@@H](C)[C@H](CN(C)S(=O)(=O)c3ccc(F)cc3)OCCCCOc3ccc(NC(=O)Nc4c(C)noc4C)cc3C2=O)cc1`, the GI50 in the data set with Plasmodium falciparum was determined as 17 nM. This compound also had a solubility in data set [1] of under 5 µM. Further, the remaining at 1 h, 1 µM in data set [3] was 17%.

On to `C[C@@H]1CN([C@@H](C)CN(C)C)C(=O)c2cccnc2O[C@@H](C)CCCCO[C@H]1CN(C)S(=O)(=O)c1ccc(F)cc1`, for which, in the data set on Plasmodium falciparum, the 50% growth inhibitory concentration (GI50) stood at 231 nM. Further, in data set [1], the solubility is over 100 µM. Moreover, in data set [3], the remaining at 1 h, 1 µM was under 5%.

In the case of `C[C@@H]1CN([C@@H](C)CN(C)Cc2cc(F)ccc2F)C(=O)c2cccnc2O[C@@H](C)CCCCO[C@H]1CN(C)S(=O)(=O)c1ccc(F)cc1`, the GI50 with Plasmodium falciparum stood at 10 nM. In data set [1], this compound displayed a solubility of under 5 µM.

In the case of `COc1ccc(COC[C@H](C)N2C[C@@H](C)[C@H](CN(C)S(=O)(=O)c3ccc(F)cc3)OCCCC[C@H](C)Oc3cccnc3C2=O)cc1`, the 50% growth inhibitory concentration (GI50) in the data set on Plasmodium falciparum worked out at 403 nM. Moreover, the solubility in data set [1] is under 5 µM.

Broadly, the GI50 is the concentration giving 50% growth inhibition. As usually defined, the solubility is how much of the substance goes into solution per volume. High values mean much dissolved substance, low ones little dissolved substance. One may read the logD as lipophilicity at a set pH, counting ionised and neutral species. The low end stands for lower lipophilicity, the high end for higher lipophilicity.
